Laboratory results published in paper PMC9090415, “Discovery of small molecule inhibitors of Plasmodium falciparum apicoplast DNA polymerase” (Journal of Enzyme Inhibition and Medicinal Chemistry, 2022).

Biological target: P. falciparum apicoplast DNA polymerase (Pf-apPOL) (Plasmodium falciparum, UniProt Q8ILY1)
Assay: Fluorescence-based high-throughput DNA polymerase assay (molecular beacon), primary screen and dose-response;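 as to % inhibition ApPOL 90': test concentration in µM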;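 as to % inhibition apPOL 180': test concentration in µM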
Assay type: biochemical
Settings: for DNA Pol: 90 min, 10 µM
Procedure, shortened: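 Single-point screening used 10 µM compound with 20 nM polymerase, 20 nM hairpin substrate and 6 µM dNTPs for 90 min at 25 °C. Confirmatory titrations (2.5–80 µM) followed fluorescence at three times, and IC50 was derived from a fit including a cooperativity term n.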

[1] = primary screen value by plate and well
[2] = primary screen value of the 186 hits, unit not given

Sequence of P. falciparum apicoplast DNA polymerase (Pf-apPOL) (Q8ILY1 entry or part of it): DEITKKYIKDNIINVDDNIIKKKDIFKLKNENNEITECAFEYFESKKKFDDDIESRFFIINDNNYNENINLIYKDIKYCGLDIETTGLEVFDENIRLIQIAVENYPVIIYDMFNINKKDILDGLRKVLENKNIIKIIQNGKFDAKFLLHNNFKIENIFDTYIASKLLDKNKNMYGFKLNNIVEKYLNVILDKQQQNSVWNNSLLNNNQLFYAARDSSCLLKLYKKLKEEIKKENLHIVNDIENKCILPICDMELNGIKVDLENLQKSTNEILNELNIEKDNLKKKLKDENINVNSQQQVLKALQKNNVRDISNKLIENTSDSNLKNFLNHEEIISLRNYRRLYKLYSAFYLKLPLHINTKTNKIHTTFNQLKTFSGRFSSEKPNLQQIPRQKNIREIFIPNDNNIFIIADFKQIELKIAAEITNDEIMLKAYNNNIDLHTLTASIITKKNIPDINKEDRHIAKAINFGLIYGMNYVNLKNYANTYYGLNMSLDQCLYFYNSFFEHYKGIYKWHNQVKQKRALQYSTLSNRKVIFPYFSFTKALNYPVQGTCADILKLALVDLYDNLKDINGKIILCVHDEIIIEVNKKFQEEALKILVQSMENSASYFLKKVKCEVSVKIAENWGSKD

O=C1NCCCn2cc(S(=O)(=O)Nc3ccccc3)cc21 [KU0214835] was tested, and the “% inhibition Apo pol 10'” value (DRC-1, concentration 2.5) was 3.062%, the “% inhibition Apo pol 10'” value (DRC-1, concentration 5) was 6.352% and the “% inhibition Apo pol 10'” value (DRC-1, concentration 10) was 23.7327%. For the same compound, the “% inhibition Apo pol 10'” value (DRC-1, concentration 20) was 40.9778%, the “% inhibition Apo pol 10'” value (DRC-1, concentration 40) was 76.8886% and the “% inhibition Apo pol 10'” value (DRC-1, concentration 80) was 90.7287%. The “% inhibition Apol 90'” value (DRC-1, concentration 2.5) was -1.959%, the “% inhibition Apol 90'” value (DRC-1, concentration 5) was -0.5686% and the “% inhibition Apol 90'” value (DRC-1, concentration 10) was 11.8703%. The “% inhibition Apol 90'” value (DRC-1, concentration 20) was 23.2222%, the “% inhibition Apol 90'” value (DRC-1, concentration 40) was 60.7318% and the “% inhibition Apol 90'” value (DRC-1, concentration 80) was 88.5247%. For the same compound, the “% inhibition apPOL 180'” value (DRC-1, concentration 2.5) was -6.967%, the “% inhibition apPOL 180'” value (DRC-1, concentration 5) was -5.597% and the “% inhibition apPOL 180'” value (DRC-1, concentration 10) was 2.257%. The “% inhibition apPOL 180'” value (DRC-1, concentration 20) was 8.277%, the “% inhibition apPOL 180'” value (DRC-1, concentration 40) was 41.6614% and the “% inhibition apPOL 180'” value (DRC-1, concentration 80) was 83.4683%. The “% inhibition Apo pol 5'” value (DRC-2, concentration 2.5) was 5.45%, the “% inhibition Apo pol 5'” value (DRC-2, concentration 5) was 8% and the “% inhibition Apo pol 5'” value (DRC-2, concentration 10) was 25%. The “% inhibition Apo pol 5'” value (DRC-2, concentration 20) was 44%, the “% inhibition Apo pol 5'” value (DRC-2, concentration 40) was 53% and the “% inhibition Apo pol 5'” value (DRC-2, concentration 80) was 50%. The “% inhibition Apol 40'” value (DRC-2, concentration 2.5) was 7%, the “% inhibition Apol 40'” value (DRC-2, concentration 5) was 8% and the “% inhibition Apol 40'” value (DRC-2, concentration 10) was 24%. For the same compound, the “% inhibition Apol 40'” value (DRC-2, concentration 20) was 48%, the “% inhibition Apol 40'” value (DRC-2, concentration 40) was 66% and the “% inhibition Apol 40'” value (DRC-2, concentration 80) was 70%. The “% inhibition ApPOL 90'” value (DRC-2, concentration 2.5) was 5.66%, the “% inhibition ApPOL 90'” value (DRC-2, concentration 5) was 7% and the “% inhibition ApPOL 90'” value (DRC-2, concentration 10) was 21%. The “% inhibition ApPOL 90'” value (DRC-2, concentration 20) was 44%, the “% inhibition ApPOL 90'” value (DRC-2, concentration 40) was 66% and the “% inhibition ApPOL 90'” value (DRC-2, concentration 80) was 74%. The “% inhibition apPOL 180'” value (DRC-2, concentration 2.5) was 2%, the “% inhibition apPOL 180'” value (DRC-2, concentration 5) was 3.52% and the “% inhibition apPOL 180'” value (DRC-2, concentration 10) was 14%. For the same compound, the “% inhibition apPOL 180'” value (DRC-2, concentration 20) was 31%, the “% inhibition apPOL 180'” value (DRC-2, concentration 40) was 59% and the “% inhibition apPOL 180'” value (DRC-2, concentration 80) was 76%. For the same compound, the “% inhibition Apol 40'” value (conc. 2.5, DRC-2) was 7%, the “% inhibition Apo pol 5'” value (conc. 5, DRC-2) was 8% and the “% inhibition Apol 40'” value (conc. 5, DRC-2) was 8%. For the same compound, the “% inhibition ApPOL 90'” value (conc. 5, DRC-2) was 7%, the “% inhibition Apo pol 5'” value (conc. 20, DRC-2) was 44% and the “% inhibition ApPOL 90'” value (conc. 20, DRC-2) was 44%. For the same compound, the “% inhibition Apol 40'” value (conc. 40, DRC-2) was 66%, the “% inhibition ApPOL 90'” value (conc. 40, DRC-2) was 66% and the “DNA Pol” value [1] was 21. The “DNA Pol” value [2] was 21.
With CN1CC(=Cc2ccco2)C(=O)C(=Cc2ccco2)C1 [Molecule 65] the IC50 (supplemental file 2, sheet IC50 nontoxic compounds, Pf-apPOL) was 7.51 µM.
For O=C(CSc1nnc(-c2ccncc2)[nH]1)c1ccc(O)c(O)c1 [Molecule 89, O=C(c1ccc(c(c1)O)O)CSc1nnc([nH]1)c1ccncc1], the “% inhibition Apo pol 10'” value (DRC-1, concentration 2.5) was 60.0938%, the “% inhibition Apo pol 10'” value (DRC-1, concentration 5) was 82.0224% and the “% inhibition Apo pol 10'” value (DRC-1, concentration 10) was 88.031%. For the same compound, the “% inhibition Apo pol 10'” value (DRC-1, concentration 20) was 91.1846%, the “% inhibition Apo pol 10'” value (DRC-1, concentration 40) was 93.0486% and the “% inhibition Apo pol 10'” value (DRC-1, concentration 80) was 94.9385%. For the same compound, the “% inhibition Apol 90'” value (DRC-1, concentration 2.5) was 43.8309%, the “% inhibition Apol 90'” value (DRC-1, concentration 5) was 70.0142% and the “% inhibition Apol 90'” value (DRC-1, concentration 10) was 80.3522%. For the same compound, the “% inhibition Apol 90'” value (DRC-1, concentration 20) was 84.6554%, the “% inhibition Apol 90'” value (DRC-1, concentration 40) was 86.229% and the “% inhibition Apol 90'” value (DRC-1, concentration 80) was 90.5693%. For the same compound, the “% inhibition apPOL 180'” value (DRC-1, concentration 2.5) was 29.303%, the “% inhibition apPOL 180'” value (DRC-1, concentration 5) was 56.5831% and the “% inhibition apPOL 180'” value (DRC-1, concentration 10) was 70.7438%. The “% inhibition apPOL 180'” value (DRC-1, concentration 20) was 76.8269%, the “% inhibition apPOL 180'” value (DRC-1, concentration 40) was 78.119% and the “% inhibition apPOL 180'” value (DRC-1, concentration 80) was 84.9374%. For the same compound, the “% inhibition Apo pol 5'” value (DRC-2, concentration 2.5) was 47%, the “% inhibition Apo pol 5'” value (DRC-2, concentration 5) was 49% and the “% inhibition Apo pol 5'” value (DRC-2, concentration 10) was 52%. The “% inhibition Apo pol 5'” value (DRC-2, concentration 20) was 53%, the “% inhibition Apo pol 5'” value (DRC-2, concentration 40) was 57% and the “% inhibition Apo pol 5'” value (DRC-2, concentration 80) was 58%. For the same compound, the “% inhibition Apol 40'” value (DRC-2, concentration 2.5) was 53%, the “% inhibition Apol 40'” value (DRC-2, concentration 5) was 62% and the “% inhibition Apol 40'” value (DRC-2, concentration 10) was 68%. For the same compound, the “% inhibition Apol 40'” value (DRC-2, concentration 20) was 71%, the “% inhibition Apol 40'” value (DRC-2, concentration 40) was 76% and the “% inhibition Apol 40'” value (DRC-2, concentration 80) was 78%. For the same compound, the “% inhibition ApPOL 90'” value (DRC-2, concentration 2.5) was 50%, the “% inhibition ApPOL 90'” value (DRC-2, concentration 5) was 62% and the “% inhibition ApPOL 90'” value (DRC-2, concentration 10) was 69%. For the same compound, the “% inhibition ApPOL 90'” value (DRC-2, concentration 20) was 73%, the “% inhibition ApPOL 90'” value (DRC-2, concentration 40) was 78% and the “% inhibition ApPOL 90'” value (DRC-2, concentration 80) was 80%. The “% inhibition apPOL 180'” value (DRC-2, concentration 2.5) was 34%, the “% inhibition apPOL 180'” value (DRC-2, concentration 5) was 53% and the “% inhibition apPOL 180'” value (DRC-2, concentration 10) was 63%. The “% inhibition apPOL 180'” value (DRC-2, concentration 20) was 68%, the “% inhibition apPOL 180'” value (DRC-2, concentration 40) was 76% and the “% inhibition apPOL 180'” value (DRC-2, concentration 80) was 80%. The “% inhibition Apol 40'” value (conc. 2.5, DRC-2) was 53%, the “% inhibition Apol 40'” value (conc. 5, DRC-2) was 62% and the “% inhibition ApPOL 90'” value (conc. 5, DRC-2) was 62%. The “% inhibition apPOL 180'” value (conc. 5, DRC-2) was 53%, the “% inhibition Apol 40'” value (conc. 10, DRC-2) was 68% and the “% inhibition Apo pol 5'” value (conc. 20, DRC-2) was 53%. For the same compound, the “% inhibition apPOL 180'” value (conc. 20, DRC-2) was 68%, the “% inhibition Apol 40'” value (conc. 40, DRC-2) was 76% and the “% inhibition ApPOL 90'” value (conc. 40, DRC-2) was 78%. The “% inhibition apPOL 180'” value (conc. 40, DRC-2) was 76%, the “% inhibition Apol 40'” value (conc. 80, DRC-2) was 78% and the “% inhibition ApPOL 90'” value (conc. 80, DRC-2) was 80%. For the same compound, the “% inhibition apPOL 180'” value (conc. 80, DRC-2) was 80%, the “DNA Pol” value [1] was 90 and the “DNA Pol” value [2] was 90.
